What was measured:
[1] = biological target: T1, full length GRK5 (Homo sapiens, UniProt P34947); assay: GRK5 kinase activity assay, ADP Glo Kinase Assay technology (Promega); assay type: biochemical; details: group II; ADP Glo Kinase Assay (Table 9-B)
T1 construct: 6/2 fold concentrated full length GRK5 (Millipore, #14-714) in reaction buffer; purchased Millipore 14-714
Method: The maximal compound assay concentration was set to 100 μM, representing the compound assay concentration used in the primary screen.
Increasing concentrations of GRK5 are incubated together with 100 μM ATP in the absence and presence of 10 μM casein in a reaction buffer. Within this incubation non-phosphorylated casein is converted into phosphorylated casein and ATP is converted into ADP. Thereafter nonconverted ATP is digested into AMP by addition of the ADP-Glo™ Reagent. Subsequently the ADP that is produced by GRK5 activity is phosphorylated back to ATP by addition of Promega Kinase Detection Reagent. These ATP levels serve as measure for the GRK5 activity and are quantified by a luciferase/luciferin reaction.
For GRK5 kinase activity assay, the following protocol was used:
The reaction buffer used was composed of: 20 mM MES pH 6.0, 1 mM DTT, 10 mM MgCl2, 0.01% Tween20 and the reaction volume was 6 μL.
Firstly 4 μL 6/4 fold concentrated substrate and 6/4 fold concentrated ATP in 1 fold concentrated reaction buffer are added to each well of the assay plate. Subsequently 67 nL […] concentrated test compound in 100% DMSO are added to each well except to C− and C+ wells using pin tool. Then 67 nL 100% DMSO are pipetted to C− (no kinase, no compound) and C+ (no compound) wells using pin-tool and 2 μL reaction buffer are added to C− wells. […] After incubation for 120 min. at room temperature 6 μL ADP-Glo™ Reagent (ADP Glo™ Kinase Assay Kit: Promega, V9101) are added to each well to stop the kinase reaction and deplete the unconsumed ATP. After a second incubation for 40 min. at room temperature 12 μL of Kinase Detection Reagent are added to convert ADP to ATP and start luciferase/luciferin reaction for detection of ATP. […] Finally, after incubation for 40 min at room temperature the luminescence intensity was measured.
The activity of the compounds was classified according to IC50 for binding sites of Grk5 into the following ranges:
8800 Customer compounds were screened for their ability to inhibit the enzymatic activity of GRK5. Screening was performed using the ADP Glo™ Kinase Assay technology (Promega). The small molecular weight compounds were delivered at 10 mM stock concentration and were tested at a final assay concentration of 100 μM.
IC50 values were determined in triplicates at 12 concentrations with a dilution factor of three. Triplicates were measured on three different assay plates. The maximal compound assay concentration was set to 100 μM representing the compound assay concentration used in the primary screen. A larger maximal compound assay concentration could not be achieved since the maximal compound concentration on the compound plates was 10 mM (>1% DMSO concentration in the assay).

[2] = test system: 3T3-L1 cells; assay: Cell viability assay (CellTiter-Glo / automated cell number) in 3T3-L1; assay type: cell-based; details: Mus musculus, read-out: Inhibition of cell viability IC50
Excerpt: (§1) Luminescent cell viability assay. For the detection of cell viability, the CellTiter-Glo® Luminescent Cell Viability Assay was used. This test is based on a luciferase reaction to measure the amount of ATP in cells. This correlates directly with the number of cells and their viability because cells lose the ability to synthesize ATP directly after e.g. loss of membrane integrity or a cytotoxic event. The protocol was adapted to 24 well plates and to the different culture conditions resulting in a standardized protocol which is described below. Cell lysis, inhibition of endogenous ATPases and detection of ATP was performed by adding the CellTiter-Glo® Reagent to the culture wells. Per well, 100 μl reagent were mixed with the same volume of proper Medium. Lysing of the cells took place by 10 min incubation at RT and moderate shaking. Three times 50 μl cell lysate was transferred into a white 96 well plate to eliminate stray light, and the bioluminescence was measured.
(§2) In a 96 well dish 10000 cells per well (100 μl) were seed and treated for 72 h. At the end of the treatment, cells were fixed with 4% paraformaldehyde in PBS for 15 minutes, permeabilized with 0.1% triton-X 100 in PBS for 15 minutes and stained with Hoechst 33342 (20 μg/ml in PBS; dilute from 20 mg/ml stock) directly to cells in 100 μl medium in PBS for 30 minutes at 37° C. Stained cells were imaged with a Cellomics ArrayScan VT I automated microscope. Images were analyzed with vHCS Scan Target Activation software v5.1.2 to identify apoptotic cells. Six fields per well of a 96 well plate we re-imaged at 10× magnification. First, cells were identified by their nuclei staining in channel 1 of Cellomics and their amount. Staining intensity was plotted and compared between NT controls and compound treated cells. Finally, data was obtained using vHCS View software v 5.1.2 and the numbers of cells present in the 96 well were identified as “Valid Object Count” whereas the percentage of infection was determined as “% selected”. IC50 values have been calculated accordingly.

[3] = test system: beta TC6 cells; assay: Cell viability assay (CellTiter-Glo / automated cell number) in beta TC6; assay type: cell-based; details: Mus musculus, read-out: Inhibition of cell viability IC50
Excerpt: as §1, §2

[4] = test system: C2C12 cells; assay: Cell viability assay (CellTiter-Glo / automated cell number) in C2C12; assay type: cell-based; details: Mus musculus, read-out: Inhibition of cell viability IC50
Excerpt: as §1, §2

[5] = test system: HepG2 cells; assay: Cell viability assay (CellTiter-Glo / automated cell number) in HepG2; assay type: cell-based; details: Homo sapiens, read-out: Inhibition of cell viability IC50
Excerpt: as §1, §2

T1 sequence (P34947 whole entry): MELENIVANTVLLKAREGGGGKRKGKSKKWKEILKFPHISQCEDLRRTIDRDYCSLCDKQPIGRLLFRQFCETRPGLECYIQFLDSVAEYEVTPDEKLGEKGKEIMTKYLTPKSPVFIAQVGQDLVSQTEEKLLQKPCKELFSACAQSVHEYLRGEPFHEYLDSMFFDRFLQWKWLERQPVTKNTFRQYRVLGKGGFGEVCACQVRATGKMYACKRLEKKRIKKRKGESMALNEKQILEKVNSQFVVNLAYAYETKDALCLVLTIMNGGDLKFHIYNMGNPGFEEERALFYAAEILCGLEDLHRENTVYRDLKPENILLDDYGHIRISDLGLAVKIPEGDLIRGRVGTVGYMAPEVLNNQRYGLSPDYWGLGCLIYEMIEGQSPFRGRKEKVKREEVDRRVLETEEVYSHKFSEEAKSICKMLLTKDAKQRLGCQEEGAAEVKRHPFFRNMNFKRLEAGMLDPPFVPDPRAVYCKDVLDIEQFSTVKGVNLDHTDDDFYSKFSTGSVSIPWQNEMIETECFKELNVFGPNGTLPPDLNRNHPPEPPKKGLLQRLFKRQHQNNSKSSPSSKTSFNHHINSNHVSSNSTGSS

| Structure (SMILES) | IC50 [1] [nM] | IC50 [5] [nM] | IC50 [2] [nM] | IC50 [3] [nM] | IC50 [4] [nM] |
| --- | --- | --- | --- | --- | --- |
| Cc1[nH]c(/C=C2\C(=O)Nc3ccc(C(=O)N[C@H](C)c4ccccc4)cc32)c(C)c1C(=O)N1CCN(C)CC1 [II.15, (3Z)-3-({3,5-dimethyl-4-[(4-methylpiperazin-1-yl)carbonyl]-1H-pyrrol-2-yl}methylene)-2-oxo-N-[(1R)-1-phenylethyl]indoline-5-carboxamide] | 1000 to 2000 | 540 | 1120 | 1680 | 2370 |
| CCC(NC(=O)c1ccc2c(c1)/C(=C/c1[nH]c(C)c(C(=O)NCCN3CCCC3)c1C)C(=O)N2)c1ccc(Cl)cc1 (stereo not shown) [II.13, (3Z)-N-[1-(4-chlorophenyl)propyl]-3-({3,5-dimethyl-4-[(2-pyrrolidin-1-ylethyl)carbamoyl]-1H-pyrrol-2-yl}methylene)-2-oxoindoline-5-carboxamide] | 100 to 1000 | 1590 | > 10000 | 1630 | 4610 |
| CCN(CC)CCNC(=O)c1c(C)[nH]c(/C=C2\C(=O)Nc3ccc(C(=O)N[C@@H](C)c4ccccc4)cc32)c1C [II.60, (3Z)-3-[(4-{[2-(diethylamino)ethyl]carbamoyl}-3,5-dimethyl-1H-pyrrol-2-yl)methylene]-2-oxo-N-[(1S)-1-phenylethyl]indoline-5-carboxamide] |  | 2290 | 2000 | 2210 | 4060 |
| CCC(NC(=O)c1ccc2c(c1)/C(=C/c1[nH]c(C)c(CCC(=O)NCCN(CC)CC)c1C)C(=O)N2)c1cccc(Cl)c1 (stereo not shown) [II.135, (3Z)-3-{4-[2-(2-diethylamino-ethylcarbamoyl)-ethyl]-3,5-dimethyl-1H-pyrrol-2-ylmethyiene}-2-oxo-2,3-dihydro-1H-indole-5-carboxylic acid [1-(3-chloro-phenyl)-propyl]-amide] | < 100 | 1850 | 1350 | 1550 | > 10000 |
| CCOC(=O)[C@H](C)NC(=O)c1c(C)[nH]c(/C=C2\C(=O)Nc3ccc(C(=O)O)cc32)c1C [II.136] | 100 to 1000 | > 10000 | 2690 | > 10000 | > 10000 |
| CC[C@@H](NC(=O)c1ccc2c(c1)/C(=C/c1[nH]c(C)c(C(=O)NCCN3CCCC3)c1C)C(=O)N2)c1ccccc1 [II.6, (3Z)-3-({3,5-dimethyl-4-[(2-pyrrolidin-1-ylethyl)carbamoyl]-1H-pyrrol-2-yl}methylene)-2-oxo-N-[(1R)-1-phenylpropyl]indoline-5-carboxamide] | 100 to 1000 | 270 | 1700 | 420 | 1490 |
| CC[C@@H](NC(=O)c1ccc2c(c1)/C(=C/c1[nH]c(C)c(C(=O)N3CCN(C)CC3)c1C)C(=O)N2)c1ccccc1 [II.7, (3Z)-3-({3,5-dimethyl-4-[(4-methylpiperazin-1-yl)carbonyl]-1H-pyrrol-2-yl}methylene)-2-oxo-N-[(1R)-1-phenylpropyl]indoline-5-carboxamide] | 2000 to 10000 | 690 | 1070 | 1190 | 1310 |
| CC[C@@H](NC(=O)c1ccc2c(c1)/C(=C/c1[nH]c(C)c(C(=O)NCCN(CC)CC)c1C)C(=O)N2)c1ccccc1 [II.61, (3Z)-3-[(4-{[2-(diethylamino)ethyl]carbamoyl}-3,5-dimethyl-1H-pyrrol-2-yl)methylene]-2-oxo-N-[(1R)-1-phenylpropyl]indoline-5-carboxamide] | < 100 | 330 | 600 | 440 | 1490 |
| COC(=O)[C@H](COC(C)(C)C)NC(=O)c1c(C)[nH]c(/C=C2\C(=O)Nc3ccc(C(=O)O)cc32)c1C [II.141, (3Z)-3-[4-(2-tert-butoxy-(1S)-1-methoxycarbonyl-ethylcarbamoyl)-3,5-dimethyl-1H-pyrrol-2-ylmethylene]-2-oxo-2,3-dihydro-1H-indole-5-carboxylic acid] | 2000 to 10000 | > 10000 | 3410 | > 10000 | > 10000 |
| CC[C@@H](NC(=O)c1ccc2c(c1)/C(=C/Nc1ccc(CN3CCCCC3)cc1)C(=O)N2)c1ccccc1 [II.69, (3Z)-2-oxo-N-[(1R)-1-phenylpropyl]-3-({[4-(piperidin-1-ylmethyl)phenyl]amino}methylene)-indoline-5-carboxamide] | < 100 | 4510 | > 10000 | > 10000 | 5630 |

Continued, in another order:

| IC50 [1] [nM] | IC50 [5] [nM] | Structure (SMILES) | IC50 [2] [nM] | IC50 [3] [nM] | IC50 [4] [nM] |
| --- | --- | --- | --- | --- | --- |
| 100 to 1000 | 720 | Cc1[nH]c(/C=C2\C(=O)Nc3ccc(C(=O)N[C@H](C)c4ccccc4)cc32)c(C)c1C(=O)N1CCCCC1 [II.14, (3Z)-3-{[3,5-dimethyl-4-(piperidin-1-ylcarbonyl)-1H-pyrrol-2-yl]methylene}-2-oxo-N-[(1R)-1-phenylethyl]indoline-5-carboxamide] | 750 | 1190 | 1420 |
| 1000 to 2000 | > 10000 | COC(=O)[C@@H](Cc1ccccc1)NC(=O)c1c(C)[nH]c(/C=C2\C(=O)Nc3ccc(C(=O)O)cc32)c1C [II.140, (3Z)-3-[4-((1R)-1-methoxycarbonyl-2-phenyl-ethylcarbamoyl)-3,5-dimethyl-1H-pyrrol-2-ylmethylene]-2-oxo-2,3-dihydro-1H-indole-5-carboxylic acid] | 4000 | > 10000 | > 10000 |
| 1000 to 2000 | > 10000 | Cc1[nH]c(/C=C2\C(=O)Nc3ccc(C(=O)O)cc32)c(C)c1C(=O)O [II.139, (3Z)-3-(4-carboxy-3,5-dimethyl-1H-pyrrol-2-ylmethylene)-2-oxo-2,3-dihydro-1H-indole-5-carboxylic acid] | 1340 | > 10000 | > 10000 |
| 2000 to 10000 | 1610 | COc1ccc([C@@H](C)NC(=O)c2ccc3c(c2)/C(=C/c2[nH]c(C)c(C(=O)N4CCN(C)CC4)c2C)C(=O)N3)cc1 [II.21, (3Z)-3-({3,5-dimethyl-4-[(4-methylpiperazin-1-yl)carbonyl]-1H-pyrrol-2-yl}methylene)-N-[(1R)-1-(4-methoxyphenyl)ethyl]-2-oxoindoline-5-carboxamide] | 1310 | 4070 | 9830 |
|  | 370 | CCN(CC)CCNC(=O)c1c(C)[nH]c(/C=C2\C(=O)Nc3ccc(C(=O)N[C@H](C)c4ccccc4)cc32)c1C [II.59, (3Z)-3-[(4-{[2-(diethylamino)ethyl]carbamoyl}-3,5-dimethyl-1H-pyrrol-2-yl)methylene]-2-oxo-N-[(1R)-1-phenylethyl]indoline-5-carboxamide] | 630 | 710 | 1110 |
